Patent publication US6603046B1, “Bis-aromatic a,β-unsaturated ketones” (Lica Pharmaceuticals A/S, priority 1992, dated 2003)
“And” between values parts separate entries of the source, which are not always exact repeats. Identical values can stand only once. Marks after values point to notes of the source that are not given here.

Experiments:
[1] = test system: P. yoelii strain YM; experiment: P. yoelii strain YM infection in mice, parasitemia and mortality (Example 16); type: in vivo, BALB/c mice; settings: for Parasitemia, mean / Parasitemia, single mice: 10 mg per kg twice daily days +1 to +4; for % parasitemia, Mean: orally 100 mg/kg/dose 3 and 24 h after infection
[2] = test system: Mycobacteria; type: cell-based
[3] = test system: Eimeria tenella; experiment: Anticoccidial activity in chickens infected with Eimeria tenella (Example 28); type: in vivo
[4] = test system: P. yoelii (strain not characterized); experiment: P. yoelii (strain not characterized) infection in mice, parasitemia, drug i.p. (Example 16); type: in vivo, BALB/c mice; settings: 5 mg per kg twice daily for 8 days
[5] = D + 14, i.p. 10 mg/kg twice daily D-1, D0
[6] = D + 16, i.p. 10 mg/kg four times daily D + 4 to D + 7
[7] = D + 16, i.p. 10 mg/kg twice daily D-1, D0
[8] = D + 18, i.p. 10 mg/kg four times daily D + 4 to D + 7
[9] = D + 18, i.p. 10 mg/kg twice daily D-1, D0
[10] = D + 20, i.p. 10 mg/kg four times daily D + 4 to D + 7
[11] = D + 20, i.p. 10 mg/kg twice daily D-1, D0
[12] = amount of feed consumed per kg chicken weight gain, doses as Table 28.1
[13] = in feed: salinomycin 70 ppm, 2,5 m4′ac and 2,4 mc 30 mg/kg/day, licochalcone A 10 mg/kg/day

What does the source list for `C=CC(C)(C)c1cc(/C=C/C(=O)c2ccc(O)cc2)c(OC)cc1O` [Licochalcone A, licochalcone A]?
mortality (no. of dead mice/total no. of tested mice) ([1]; D + 12, i.p. 10 mg/kg/day twice daily to D + 3): 4/5; % parasitemia (mean ± SEM) ([1]; D + 12, i.p. 10 mg/kg/day twice daily, 3 h after infection and D + 1 to D + 3): 82%; mortality (no. of dead mice/total no. of tested mice) ([1]; D + 12, i.p. 15 mg/kg/day twice daily to D + 3): (1/5); % parasitemia (mean ± SEM) ([1]; D + 12, i.p. 15 mg/kg/day twice daily, 3 h after infection and D + 1 to D + 3): 4.8 ± 3.2%; Parasitemia, mean ([1]; D + 13): 50.0%; % parasitemia, Mean ([1]; D + 13): 6.5%; Parasitemia, mean ([1]; D + 14): 35.0%; mortality (no. of dead mice/total no. of tested mice) ([1]; D + 14, 10 mg/kg/day twice daily to D + 5): 1/5; % parasitemia (mean ± SEM) ([1]; D + 14, 10 mg/kg/day twice daily, 3 h after infection, D + 1 to D + 5): 17 ± 17%; % parasitemia (mean ± SEM) ([1]; D + 14, 15 mg/kg/day twice daily, 3 h after infection, D + 1 to D + 5): 0%; % parasitemia (mean ± SEM) ([1]; D + 14, i.p. 10 mg/kg four times daily D + 4 to D + 7): 58.6 ± 9.0%; % parasitemia (mean ± SEM) [1, 5]: 0%; mortality (no. of dead mice/total no. of tested mice) [1, 5]: 4/5; mortality (no. of dead mice/total no. of tested mice) ([1]; D + 14, i.p. 10 mg/kg/day twice daily to D + 3): (5/5); mortality (no. of dead mice/total no. of tested mice) ([1]; D + 14, i.p. 15 mg/kg/day twice daily to D + 3): 1/5; % parasitemia (mean ± SEM) ([1]; D + 14, i.p. 15 mg/kg/day twice daily, 3 h after infection and D + 1 to D + 3): 0%; Parasitemia, mean ([1]; D + 15): 2.0%; Parasitemia, single mice ([1]; D + 15): 2.0%; Parasitemia, mean ([1]; D + 16): 0.3%; Parasitemia, single mice ([1]; D + 16): 0.5% and 0.1%; mortality (no. of dead mice/total no. of tested mice) ([1]; D + 16, 10 mg/kg/day twice daily to D + 5): 2/5; % parasitemia (mean ± SEM) ([1]; D + 16, 10 mg/kg/day twice daily, 3 h after infection, D + 1 to D + 5): 0%; % parasitemia (mean ± SEM) ([1]; D + 16, 15 mg/kg/day twice daily, 3 h after infection, D + 1 to D + 5): 0%; % parasitemia (mean ± SEM) [1, 6]: 75.8 ± 6.6%; mortality (no. of dead mice/total no. of tested mice) [1, 6]: 1/5; % parasitemia (mean ± SEM) [1, 7]: 0%; mortality (no. of dead mice/total no. of tested mice) [1, 7]: 4/5; % parasitemia, Mean ([1]; D + 16): 0%; Parasitemia, mean ([1]; D + 17): 0.0%; Parasitemia, single mice ([1]; D + 17): 0.0%; mortality (no. of dead mice/total no. of tested mice) ([1]; D + 18, 10 mg/kg/day twice daily to D + 5): 2/5; % parasitemia (mean ± SEM) ([1]; D + 18, 10 mg/kg/day twice daily, 3 h after infection, D + 1 to D + 5): 0%; % parasitemia (mean ± SEM) ([1]; D + 18, 15 mg/kg/day twice daily, 3 h after infection, D + 1 to D + 5): 0%; % parasitemia (mean ± SEM) [1, 8]: 53 ± 25%; mortality (no. of dead mice/total no. of tested mice) [1, 8]: 2/5; % parasitemia (mean ± SEM) [1, 9]: 0%; mortality (no. of dead mice/total no. of tested mice) [1, 9]: 4/5; % parasitemia (mean ± SEM) [1, 10]: 19 ± 9.7%; mortality (no. of dead mice/total no. of tested mice) [1, 10]: 3/5; % parasitemia (mean ± SEM) [1, 11]: 0%; mortality (no. of dead mice/total no. of tested mice) [1, 11]: 4/5; Species with MIC ≦ 20 μg/ml [2]: M. kansasii and M. xenophii and M. marinum and M. tuberculosis and M. bovis and BCG; percentages of chickens showing pathological signs versus infected control group ([3]; 10 mg/kg/day in feed): much lower; feed consumption after 7 days of treatment [3, 12]: 1.26; feed consumption after 14 days of treatment [3, 12]: 1.31; Weight gain in 7 days after initiation of treatment [3, 13]: 414 grams per chicken; Weight gain in 14 days after initiation of treatment [3, 13]: 864^b grams per chicken; Difference in weight gain to group 5 (control infected) after treatment for 14 days ([3]; normal variation ±2%): ^bDifference between groups 4 (licochalcone A) and 5 (control infected) after treatment for 14 days is 7.6%.; Mortality ([3]; number of chickens, groups of 35, licochalcone A 20): 0; Parasitemia, mean of 3 mice ([4]; D + 1): 0.03%; Parasitemia, single mice ([4]; D + 1): 0.05% and 0.03% and 0.02%; Parasitemia, mean of 3 mice ([4]; D + 2): 0.2%; Parasitemia, single mice ([4]; D + 2): 0.5% and 0.05% and 0.01%; Parasitemia, mean of 3 mice ([4]; D + 3): 1.0%; Parasitemia, single mice ([4]; D + 3): 2.0% and 0.5%; Parasitemia, mean of 3 mice ([4]; D + 4): 2.5%; Parasitemia, single mice ([4]; D + 4): 4.0% and 1.5% and 2.0%; Parasitemia, mean of 3 mice ([4]; D + 5): 2.5%; Parasitemia, single mice ([4]; D + 5): 4.0% and 1.5% and 2.0%; Parasitemia, mean of 3 mice ([4]; D + 6): 2.3%; Parasitemia, single mice ([4]; D + 6): 4.5% and 2.0% and 1.0%; Parasitemia, mean of 3 mice ([4]; D + 7): 2.2%; Parasitemia, single mice ([4]; D + 7): 4.0% and 1.5% and 1.0%; Parasitemia, mean of 3 mice ([4]; D + 8): 2.3%; Parasitemia, single mice ([4]; D + 8): 4.0% and 1.5%; Parasitemia, mean of 3 mice ([4]; D + 9): 2.2%; Parasitemia, single mice ([4]; D + 9): 4.0% and 1.0% and 1.5%; Parasitemia, mean of 3 mice ([4]; D + 11): 1.7%; Parasitemia, single mice ([4]; D + 11): 2.0% and 1.0%; Parasitemia, mean of 3 mice ([4]; D + 12): 1.7%; Parasitemia, single mice ([4]; D + 12): 2.0% and 1.0%; Parasitemia, mean of 3 mice ([4]; D + 14): 0.7%; Parasitemia, single mice ([4]; D + 14): 1.0% and 0.0%; Parasitemia, mean of 3 mice ([4]; D + 16): 0.03%; Parasitemia, single mice ([4]; D + 16): 0.0% and 0.1%; Parasitemia, mean of 3 mice ([4]; D + 18): 0.0%; Parasitemia, single mice ([4]; D + 18): 0.0%; Parasitemia, mean of 3 mice ([4]; D + 20): 0.0%; Parasitemia, single mice ([4]; D + 20): 0.0%; Parasitemia, mean of 3 mice ([4]; D + 21): 0.0%; Parasitemia, single mice ([4]; D + 21): 0.0%
